Results on 14 molecules are retold here after PubChem BioAssay (NCI).

SMILES strings stand for the structures. Where “and” joins values, the source holds several entries; their conditions need not be identical. Equal values may be shown once.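 Exposure lasted 48 hours, with cells grown in 96-well plates and compounds tested at five concentrations. Here, GI50 denotes the concentration required for 50% inhibition of growth. At the TGI there is no net growth.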

Test systems include UACC-257 melanoma; K-562 leukemia; SNB-19 CNS; NCI-H522 lung; TK-10 renal; CCRF-CEM leukemia; HOP-92 NSCLC; HCC-2998 colon; SW-620 colon.
Common to all, as to test: inhibition of tumour cell growth, NCI panel, 48 h

With `Cc1cc(Cl)cc2c1NC(=O)C2(O)CC(=O)c1ccc(Br)cc1` (configuration not stated), the TGI in the test with UACC-257 melanoma was over 100 µM; with K-562 leukemia it was over 100 µM; with SNB-19 CNS, over 100 µM; in the test on NCI-H522 lung it was over 100 µM; in the test with TK-10 renal it was over 100 µM; in the test with CCRF-CEM leukemia it was 42.7 µM. Moreover, the TGI in the test with HOP-92 NSCLC, with HCC-2998 colon and with SW-620 colon was over 100 µM throughout.
`CCCCNS(=O)(=O)c1ccc(-c2ccc3c(c2)-c2ccc(S(=O)(=O)NCCCC)cc2S3(=O)=O)cc1`: the TGI is over 100 µM with UACC-257 melanoma; over 100 µM with K-562 leukemia; 66.2 µM with NCI-H522 lung; 83.2 µM in the test on TK-10 renal; over 100 µM with CCRF-CEM leukemia; 41.5 µM in the test with HOP-92 NSCLC. For the same molecule, the TGI in the test on HCC-2998 colon and with SW-620 colon was over 100 µM throughout.
`CCOC(=O)[C@@]12C(C)=CC(=O)O[C@]1(C)C1C(=O)NC(=O)C12` (some centres not stated): the TGI in the test on UACC-257 melanoma, in the test on K-562 leukemia, in the test with SNB-19 CNS, in the test on TK-10 renal, in the test on CCRF-CEM leukemia and with HOP-92 NSCLC was over 100 µM each time. The TGI with HCC-2998 colon and with SW-620 colon was over 100 µM each time.
On to `O=C(O)c1c2c(cc3c(=O)c4ccccc4[nH]c13)CCCC2`, for which the TGI in the test on UACC-257 melanoma, in the test on SNB-19 CNS, with TK-10 renal, with CCRF-CEM leukemia, in the test with HOP-92 NSCLC and in the test on HCC-2998 colon was over 100 µM in each case. The molecule further had a TGI in the test on SW-620 colon of over 100 µM.
Consider `CCCCCCCC(=O)[O-].CCCCCCCC(=O)[O-].N.N.N.N.[Co+3].[O-][Cl+3]([O-])([O-])[O-]`, for which the GI50 was over 100 µM in the test on UACC-257 melanoma; over 100 µM with K-562 leukemia; over 100 µM in the test on SNB-19 CNS; 57.1 µM in the test with TK-10 renal; over 100 µM in the test with CCRF-CEM leukemia; over 100 µM in the test with HOP-92 NSCLC. Further, the GI50 in the test with HCC-2998 colon and with SW-620 colon was over 100 µM each time. Also, the TGI with UACC-257 melanoma, with K-562 leukemia, in the test with SNB-19 CNS, with TK-10 renal, in the test with CCRF-CEM leukemia and in the test with HOP-92 NSCLC was over 100 µM throughout. The TGI in the test with HCC-2998 colon and in the test with SW-620 colon was over 100 µM in each case.
As for `Cc1ccc(N2C(=O)/C(=C/c3ccc(N(CCC#N)CCC#N)cc3)N=C2COc2ccc(Cl)cc2Cl)cc1`, the TGI in the test with UACC-257 melanoma, in the test on K-562 leukemia, in the test on SNB-19 CNS, with NCI-H522 lung, in the test on TK-10 renal and with CCRF-CEM leukemia was over 100 µM each time. Further, the TGI in the test with SW-620 colon is over 100 µM.
As for `O=C1C(Cl)=C(Cl)C(=O)N1c1ccc(Cl)c(Cl)c1Cl`, the TGI in the test with UACC-257 melanoma was over 100 µM; in the test on K-562 leukemia it was 91.8 µM; in the test with SNB-19 CNS, over 100 µM; in the test on NCI-H522 lung it was 28.8 µM; with TK-10 renal, over 100 µM; with CCRF-CEM leukemia, 45.6 µM. In addition, the TGI in the test on HOP-92 NSCLC is 88.5 µM; in the test with HCC-2998 colon, over 100 µM; in the test on SW-620 colon it was over 100 µM.
Regarding `CCCC(O)c1cn(-c2cccc(S(=O)(=O)O)c2)nn1` (configuration not stated), the TGI in the test with UACC-257 melanoma, with K-562 leukemia, in the test on SNB-19 CNS, with NCI-H522 lung, in the test on TK-10 renal and in the test on CCRF-CEM leukemia was over 100 µM each time. For the same molecule, the TGI in the test on HOP-92 NSCLC, in the test with HCC-2998 colon and in the test with SW-620 colon was over 100 µM in each case.
As to `O=C1OC(=O)C23CSCC12C1C=CC3O1` (configuration not stated), the TGI in the test with UACC-257 melanoma, in the test with K-562 leukemia, in the test with SNB-19 CNS, in the test on NCI-H522 lung, in the test with TK-10 renal and with CCRF-CEM leukemia was over 100 µM throughout. Also, the TGI in the test on HCC-2998 colon and in the test on SW-620 colon was over 100 µM in each case.
On to `CC(=O)OCC1OC(n2c(=O)[nH]c(=O)c3n[nH]nc32)C(OC(C)=O)C(OC(C)=O)C1OC(C)=O` (configuration not stated), for which the TGI in the test with UACC-257 melanoma, in the test on K-562 leukemia, in the test on SNB-19 CNS, in the test with NCI-H522 lung, with TK-10 renal and in the test with CCRF-CEM leukemia was over 100 µM throughout. Further, the TGI in the test with HOP-92 NSCLC, in the test on HCC-2998 colon and with SW-620 colon was over 100 µM in each case.
Take `COc1cc(Cc2c(C)cc(OC)c3[nH]c4ccccc4c23)cc2c1[nH]c1ccccc12`: the GI50 in the test on K-562 leukemia was 7.31 µM; in the test with NCI-H522 lung it was 5.03 µM; in the test on TK-10 renal, 12 µM; with CCRF-CEM leukemia it was 8.59 µM; in the test on HOP-92 NSCLC, 7.63 µM; with HCC-2998 colon, 5.43 µM. In addition, the GI50 with SW-620 colon was 8.09 µM. Besides, the TGI in the test on K-562 leukemia is over 25 µM; in the test with SNB-19 CNS, over 25 µM; with NCI-H522 lung, 11.6 µM; with TK-10 renal, over 25 µM; in the test on CCRF-CEM leukemia, over 25 µM; in the test on HOP-92 NSCLC it was over 25 µM. Also, the TGI in the test on HCC-2998 colon is 14.7 µM; in the test on SW-620 colon it was over 25 µM.
`Cc1ccc(SSCC(O)C(O)CSSc2ccc(C)cc2)cc1` (configuration not stated): the TGI with UACC-257 melanoma is 30.5 µM and 28.1 µM; in the test with K-562 leukemia it was 28.3 µM and 46.8 µM; in the test with SNB-19 CNS it was 31.5 µM and 31.7 µM; with NCI-H522 lung, 3.38 µM and 3.68 µM; with TK-10 renal, 35.2 µM and 27.7 µM; with CCRF-CEM leukemia, 4.08 µM. The TGI with HOP-92 NSCLC was 26 µM and 31.4 µM; in the test with HCC-2998 colon it was 28.3 µM and 28.9 µM; with SW-620 colon, 20.2 µM and 27.2 µM. Besides, the GI50 with K-562 leukemia was 4.84 µM and 15.3 µM.
For `COc1ccc(N2C(=O)[C@@H](N=[N+]=[N-])[C@@H]2[C@H]2COC(C)(C)O2)cc1`, the TGI in the test with UACC-257 melanoma, in the test on K-562 leukemia, in the test with SNB-19 CNS, with NCI-H522 lung, in the test on CCRF-CEM leukemia and in the test with HOP-92 NSCLC was over 100 µM in each case. The TGI in the test on HCC-2998 colon and in the test on SW-620 colon was over 100 µM throughout.
On to `CCC(C)(O)c1cn(-c2ccc(Cl)cc2)nn1` (configuration not stated), for which the TGI with UACC-257 melanoma, in the test with K-562 leukemia, with SNB-19 CNS, in the test on NCI-H522 lung, in the test with TK-10 renal and in the test with CCRF-CEM leukemia was over 100 µM throughout. The TGI in the test on HOP-92 NSCLC, with HCC-2998 colon and in the test on SW-620 colon was over 100 µM in each case.
